According to ChEMBL document CHEMBL4765460, “Palladium-catalysed synthesis of arylnaphthoquinones as antiprotozoal and antimycobacterial agents” (Eur J Med Chem, 2020):
≈ marks a conversion by molar mass, not a printed value.

Assays:
[1] = test system: Trypanosoma brucei rhodesiense; experiment: Trypanocidal activity against Trypanosoma brucei rhodesiense STIB900 trypomastigotes incubated for 72 hrs by Alamar blue assay; assay type: functional, organism-based; details: STIB900, 72 h
Plasmodium falciparum = experiment: Antiplasmodial activity against Plasmodium falciparum NF54 erythrocytic stages assessed as parasite growth inhibition preincubated overnight followed by [G-3H]hypoxanthine addition and measured after 24 hrs by liquid scintillation counting method; assay type: functional, organism-based
[2] = Selectivity index, ratio of IC50 for rat L6 cells to IC50 for Trypanosoma brucei rhodesiense STIB900 trypomastigotes; assay type: toxicity; details: read-out: Ratio IC50
[3] = test system: Mycolicibacterium smegmatis; experiment: Antimycobacterial activity against Mycobacterium smegmatis mc2 155 ATCC 700084 assessed as fold reduction in EtBr MIC at half MIC concentration; assay type: functional
L6 = experiment: Cytotoxicity against rat L6 cells; assay type: cell-based
[4] = Selectivity index, ratio of IC50 for rat L6 cells to IC50 for Plasmodium falciparum NF54; assay type: toxicity; details: read-out: Ratio IC50
[5] = test system: Mycolicibacterium smegmatis; experiment: Antimycobacterial activity against Mycobacterium smegmatis mc2 155 ATCC 700084 assessed as inhibition of visible growth of bacteria by MTT assay; assay type: functional

Row | Structure (SMILES) | IC50 ([1]; read-out: IC50) [µM] | IC50 ([1]; read-out: pIC50 (converted)) [µM] | IC50 (Plasmodium falciparum; read-out: IC50) [µM] | IC50 (Plasmodium falciparum; read-out: pIC50 (converted)) [µM] | selectivity ratio [2] | fold change (FC) [3] | IC50 (L6) [µM] | selectivity ratio [4] | MIC [5] [µg/mL]
1 | Cc1ccc(C2=CC(=O)c3ccccc3C2=O)cc1 | 0.08 | 0.0759 | 3.86 | 3.89 | 90.8 | 2 | 7.26 | 1.9 | 32 (≈ 129 µM)
2 | O=C1C=C(c2cnc3ccccc3c2)C(=O)c2ccccc21 | 0.22 | 0.224 | 0.45 | 0.447 | 25.6 | 8 | 5.64 | 12.5 | 8 (≈ 28 µM)
3 | COc1cc([C@@H]2c3cc4c(cc3[C@H](O)[C@H]3COC(=O)[C@H]23)OCO4)cc(OC)c1OC [PODOFILOX] | – | – | – | – | – | – | 0.024 | – | –
4 | O=C1C=C(c2ccc(Cl)cc2)C(=O)c2ccccc21 | 0.22 | 0.224 | 2.64 | 2.63 | 40.7 | >128 | 8.96 | 3.4 | 16 (≈ 59.5 µM)
5 | CC(C)c1ccc(C2=CC(=O)c3ccccc3C2=O)cc1 | 1.45 | 1.45 | 2.96 | 2.95 | 14.1 | 4 | 20.4 | 6.9 | 64 (≈ 232 µM)
6 | O=C1C=C(c2ccco2)C(=O)c2ccccc21 | 0.13 | 0.129 | 2.07 | 2.09 | 57.2 | 2 | 7.44 | 3.6 | 128 (≈ 571 µM)
7 | O=C1C=C(c2ccccc2)C(=O)c2ccccc21 | 0.06 | 0.055 | 11 | 11 | 323 | 4 | 19.4 | 1.8 | 8 (≈ 34.2 µM)
8 | CC[n+]1c(-c2ccccc2)c2cc(N)ccc2c2ccc(N)cc21.[Br-] [HOMIDIUM BROMIDE] | – | – | – | – | – | – | – | – | 8
9 | O=C1C=C(c2cc(F)cc(F)c2)C(=O)c2ccccc21 | 0.24 | 0.24 | 0.59 | 0.589 | 40.3 | 4 | 9.67 | 16.4 | > 128
10 | O=C1C=C(c2cc3ccccc3o2)C(=O)c2ccccc21 | 1.36 | 1.35 | 25 | 25.1 | 154 | 2 | 209 | 8.4 | > 128
11 | O=C1C=C(c2ccc(OC(F)(F)F)cc2)C(=O)c2ccccc21 | 2.36 | 2.34 | 3.87 | 3.89 | 7 | 128 | 16.6 | 4.3 | 16 (≈ 50.3 µM)
12 | N#Cc1ccc(C2=CC(=O)c3ccccc3C2=O)cc1 | 0.28 | 0.275 | 1.11 | 1.1 | 25.8 | >128 | 7.21 | 6.5 | 64 (≈ 247 µM)
13 | O=C1C=C(c2ccc(F)nc2)C(=O)c2ccccc21 | 0.14 | 0.138 | 0.11 | 0.115 | 15 | >128 | 2.1 | 19.1 | 16 (≈ 63.2 µM)
14 | O=C1C=C(c2ccc(C(F)(F)F)cc2)C(=O)c2ccccc21 | 0.08 | 0.0759 | 1.08 | 1.07 | 189 | 4 | 15.1 | 14 | 128 (≈ 423 µM)
15 | O=C1C=C(c2ccc(C(=O)N3CCCCC3)cc2)C(=O)c2ccccc21 | 0.75 | 0.741 | 2.37 | 2.34 | 12.9 | 8 | 9.71 | 4.1 | 32 (≈ 92.6 µM)
16 | O=C1C=C(c2ccc(F)cc2)C(=O)c2ccccc21 | 0.22 | 0.219 | 1.81 | 1.82 | 41.2 | >128 | 9.06 | 5 | 128 (≈ 507 µM)
17 | CS(=O)(=O)Nc1cccc(C2=CC(=O)c3ccccc3C2=O)c1 | 0.2 | 0.2 | 2.56 | 2.57 | 46.3 | 128 | 9.25 | 3.6 | > 128
18 | O=C1C=C(c2ccc(Cl)nc2)C(=O)c2ccccc21 | 2.2 | 2.19 | 0.07 | 0.0661 | 14.7 | 128 | 32.4 | 463 | 32 (≈ 119 µM)
19 | O=C1C=C(c2cnc(Cl)nc2)C(=O)c2ccccc21 | 0.13 | 0.129 | 0.47 | 0.468 | 7.8 | 2 | 1.02 | 2.2 | 4 (≈ 14.8 µM)
20 | O=C1C=C(c2cccc(OC(F)(F)F)c2)C(=O)c2ccccc21 | 1.8 | 1.78 | 0.89 | 0.891 | 12.9 | 128 | 23.2 | 26.1 | 64 (≈ 201 µM)
21 | NNC(=O)c1ccncc1 [ISONIAZID] | – | – | – | – | – | – | – | – | 4 (≈ 29.2 µM)
